{
  "source": "patent US20240365792A1",
  "about": "“Pest Control Formulations and Uses Thereof” (priority 2021, published 2024)",
  "origin": "cited, not measured here",
  "key": {"acetylcholinesterase": {"target": "acetylcholinesterase (Homo sapiens, UniProt P22303)", "sequence (P22303 32-614)": "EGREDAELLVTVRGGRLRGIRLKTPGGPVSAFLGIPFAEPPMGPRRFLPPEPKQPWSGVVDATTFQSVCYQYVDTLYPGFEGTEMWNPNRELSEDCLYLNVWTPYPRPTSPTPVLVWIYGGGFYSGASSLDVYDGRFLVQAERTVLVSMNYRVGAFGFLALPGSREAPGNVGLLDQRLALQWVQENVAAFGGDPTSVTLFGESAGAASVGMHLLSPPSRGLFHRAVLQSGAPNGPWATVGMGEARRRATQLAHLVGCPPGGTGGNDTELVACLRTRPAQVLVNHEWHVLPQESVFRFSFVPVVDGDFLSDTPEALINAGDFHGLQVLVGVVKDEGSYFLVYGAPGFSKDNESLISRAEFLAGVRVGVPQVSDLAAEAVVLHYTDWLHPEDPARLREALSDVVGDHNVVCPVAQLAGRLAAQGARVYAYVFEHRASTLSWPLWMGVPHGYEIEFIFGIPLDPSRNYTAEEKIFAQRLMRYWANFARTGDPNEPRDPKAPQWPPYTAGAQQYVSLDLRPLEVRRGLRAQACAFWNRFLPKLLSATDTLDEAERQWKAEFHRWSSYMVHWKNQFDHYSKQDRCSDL", "conditions": "in humans"}, "[1]": {"conditions": "direct application to the skin"}, "insects": {"test_system": "insects", "conditions": "compared with DEET"}, "salamander larvae": {"test_system": "salamander larvae", "conditions": "in vivo"}},
  "data": [
    {"molecule": "CCN(CC)C(=O)c1cccc(C)c1", "note": "[DEET, N,N-diethyl-3-methylbenzamide]", "values": [
      {"measurement": "inhibition of acetylcholinesterase", "setting": "acetylcholinesterase", "value": "inhibit acetylcholinesterase"},
      {"measurement": "irritancy", "setting": "[1]", "value": "act as an irritant"}
    ]},
    {"molecule": "CCC(C)OC(=O)N1CCCCC1CCO", "note": "(centres unmarked) [icaridin]", "values": [
      {"measurement": "effectiveness at repelling insects", "setting": "insects", "value": "as effective as DEET"},
      {"measurement": "toxicity to salamander larvae", "setting": "salamander larvae", "value": "toxic to salamander larvae"},
      {"measurement": "irritancy", "setting": "[1]", "value": "less irritating than DEET"}
    ]}
  ]
}
